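Dose response: 5 concentrations. Exposure: 48 h. Format: 96-well plates. Endpoint: linear interpolation; highest concentration if not reached. At the TGI there is no net growth.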
Key:
Experiment in all cases: inhibition of tumour cell growth, NCI panel, 48 h
DMS 114 small cell lung = system: DMS 114 small cell lung
HOP-92 NSCLC = system: HOP-92 NSCLC
K-562 leukemia = system: K-562 leukemia
LXFL 529 NSCLC = system: LXFL 529 NSCLC
M14 melanoma = system: M14 melanoma
SNB-19 CNS = system: SNB-19 CNS
SW-620 colon = system: SW-620 colon
TK-10 renal = system: TK-10 renal
UACC-257 melanoma = system: UACC-257 melanoma
UACC-62 melanoma = system: UACC-62 melanoma
HCT-15 colon = system: HCT-15 colon

SMILES | TGI (DMS 114 small cell lung) [µM] | TGI (HOP-92 NSCLC) [µM] | TGI (K-562 leukemia) [µM] | TGI (LXFL 529 NSCLC) [µM] | TGI (M14 melanoma) [µM] | TGI (SNB-19 CNS) [µM] | TGI (SW-620 colon) [µM] | TGI (TK-10 renal) [µM] | TGI (UACC-257 melanoma) [µM] | TGI (UACC-62 melanoma) [µM] | TGI (HCT-15 colon) [µM]
O=C(c1ccccc1)C1S(=O)(=O)OCCOS1(=O)=O | > 100 | > 100 | > 100 | > 100 | > 100 | > 100 | > 100 | > 100 | > 100 | > 100 | 
O=C1CC(c2ccccc2)=Nc2ccccc2N1 |  | > 100 | > 100 | > 100 | > 100 | > 100 | 51.8 | > 100 | > 100 | > 100 | > 100
O=C1/C=C(/c2ccc(O)cc2)[C@@H](O)Cc2ccc(O)cc2O1 | > 100 |  |  | > 100 | > 100 | > 100 | > 100 | > 100 | > 100 | > 100 | > 100
CCOC(=O)/C(=C/c1ccc(C(=O)OC)cc1)N(CC)CC | > 100 | > 100 | 82.7 | > 100 | > 100 | > 100 | > 100 | > 100 | > 100 | > 100 | > 100
COc1c2c(c3ccccc3c1O)C1C=CC2C1 (configuration not stated) | 19.6 |  |  | 14.7 | 27.9 |  | 34.3 | 36.8 |  | 30.4 | 22
O=C(O)c1ccc(C2=Cc3cc(Cl)ccc3OC2)cc1 | > 100 | > 100 | > 100 | > 100 | > 100 | > 100 | > 100 | > 100 | > 100 | > 100 | > 100
NC1=NS(=O)(=O)Nc2nc(-c3ccccc3)[nH]c21 | > 100 | > 100 | > 100 | > 100 | > 100 | > 100 | > 100 | > 100 | > 100 | > 100 | > 100
O=[N+]([O-])C(/C=N/Nc1ccccc1)/C=N/Nc1ccccc1 | > 100 | > 100 | > 100 | > 100 | > 100 | > 100 | > 100 | > 100 | > 100 | > 100 | > 100
CCCCCCCCCCCCCCCCOP(=O)(O)OCC(N)C(=O)O (configuration not stated) |  | 38.4 | 56.9 |  | 46.5 | 35.9 | 38.6 | 16.5 | > 100 | 37 | 61.3
O=C(/C=C/c1cccc(Oc2ccccc2)c1)NCc1ccc(C(=O)NCCc2ccccc2)cc1 |  | > 100 | > 100 |  | > 100 | > 100 | > 100 | > 100 | > 100 | > 100 | > 100
COC(=O)c1c(C#N)c(N)nc2c1CCC2 |  | > 100 | > 100 |  | > 100 | > 100 | > 100 | > 100 | > 100 | > 100 | > 100
CCOC(=O)C(Cc1c[nH]c2cc([N+](=O)[O-])ccc12)NS(=O)(=O)c1ccc2ccccc2c1 (configuration not stated) | 38.3 | 51.6 | 39.1 | 32.5 | 34.1 | > 100 | 44.4 | 74.3 | 28.8 | 31.3 | 41.2
Cc1oc2c(c1C)S(=O)(=O)C(C#N)=C(N(C)C)N2 |  | > 100 | > 100 |  | > 100 | > 100 | > 100 | > 100 | > 100 | > 100 | > 100
Cn1ncc2c(Cl)ncnc21 |  | > 100 | > 100 |  | > 100 | > 100 | > 100 | > 100 | > 100 | > 100 | > 100
O=C(CSc1nc(-c2ccccc2)c(-c2ccccc2)[nH]1)N/N=C/c1ccc(O)cc1 | 57.5 | 84.9 | > 100 | 99.5 | 40.6 | > 100 | > 100 | 72.3 | > 100 | 54.9 | 
Cc1ccc(C2=C(C#N)C(N)OC3=C2COc2ccccc23)cc1 (configuration not stated) |  | > 100 | > 100 |  | > 100 | 41.9 | > 100 | 44.4 | > 100 | > 100 | > 100

SMILES | TGI (DMS 114 small cell lung) [µM] | TGI (HOP-92 NSCLC) [µM] | TGI (K-562 leukemia) [µM] | TGI (LXFL 529 NSCLC) [µM] | TGI (M14 melanoma) [µM] | TGI (SNB-19 CNS) [µM] | TGI (SW-620 colon) [µM] | TGI (TK-10 renal) [µM] | TGI (UACC-257 melanoma) [µM] | TGI (UACC-62 melanoma) [µM] | TGI (HCT-15 colon) [µM]
COc1cc2c(c(O)c1OC)CC1CCC(=O)N1C2c1cccc2ccccc12 (configuration not stated) |  | 45.7 | > 100 |  | 33.8 | 45 | 73 | > 100 | 61 | 30.9 | 82.9
Clc1ccc(-c2cn3c(nc4ccccc43)c(/C=C/c3ccco3)n2)cc1 |  | 50.4 | > 100 |  | > 100 | > 100 | > 100 | 82 | > 100 | > 100 | > 100
CC(O)(P(=O)(O)O)P(=O)(O)OCC(O)CN1CCOCC1 (configuration not stated) |  | > 100 | > 100 |  | > 100 | > 100 | > 100 | > 100 | > 100 | > 100 | > 100
COc1ccc([C@@H]2CC(=O)N2)cc1 | > 100 | > 100 | > 100 | > 100 | > 100 | > 100 |  | > 100 | > 100 | > 100 | > 100
O=C1CC[C@@]2(O)[C@H]3Cc4ccc(-c5ccccc5)c5c4[C@@]2(CCN3CC2CC2)[C@H]1O5 |  | 57.4 | 63.7 |  | 34 | 59.6 | 25 | 36.4 | 31.3 | 25.2 | 41.2
COC1=CC(=O)CC(C)C12Oc1c(Cl)c(OC)cc(OC)c1C2=O (configuration not stated) |  | 98.3 | > 66.4 |  | > 65.7 | > 100 | > 100 | > 100 | > 100 | > 100 | > 100
CCOC(=O)NC(OC)(C(F)(F)F)C(F)(F)F |  | > 100 | > 100 |  | > 100 | > 100 | > 100 | > 100 | > 100 | > 100 | > 100
O=C(/C=C(\S/C=C(/c1ccccc1)N1CCn2c(C(=O)c3ccccc3)c(C(=O)c3ccccc3)c(C(=O)c3ccccc3)c21)C(=O)c1ccccc1)c1ccccc1 |  | > 10 | > 10 |  | > 10 | > 10 | > 10 | > 10 | > 10 | > 10 | > 10
CCCCCCCCCCCC[C@@H](O)[C@H]1CCC([C@H](O)CCCCC(=O)CCCCCCCC2=C[C@H](C)OC2=O)O1 (some centres not stated) |  | > 50 | > 50 |  | > 35.8 | > 50 | > 50 | > 50 | > 50 | > 40.9 | > 50
CN(C)c1ccc(/C=C(\NC(=O)c2ccccc2)C2=NC(CCC(=O)O)C(=O)O2)cc1 (configuration not stated) |  | > 50 | > 50 |  | > 50 | > 50 | > 50 | > 50 | > 50 | > 50 | > 50
O=C(O)c1cnc(-n2[nH]c3c(c2=O)CCCC3)[nH]c1=O |  | > 100 | > 100 |  | > 100 | > 100 | > 100 | > 100 | > 100 | > 100 | > 100
C=C1C(O)C[C@H](OC(C)=O)[C@]2(C)C1C(OC(C)=O)[C@]1(C(C)(C)O)CC(O)C(C)=C1[C@@H](OC(=O)c1ccccc1)C2OC(C)=O (some centres not stated) |  | > 10 | > 10 |  | > 10 | > 10 | > 10 | > 10 | > 10 | > 10 | > 10
NCC(O)CNC(=O)c1ccc(-c2ccc(-c3ccc(C(=O)NCC(O)CN)cc3)o2)cc1 (configuration not stated) |  | 52.1 | > 100 |  | > 100 | 46.2 | > 100 | 38.9 | > 100 | > 100 | > 100
O=C(c1ccc(Cl)cc1)N(C(=S)N1CCN(c2ccccn2)CC1)C1CCCCC1 | > 100 | > 100 | > 100 | > 100 | > 100 | > 100 | > 100 | > 100 | > 100 | > 100 | > 100
C/C=C1\CN(C(=O)OC(C)(C)C)C1C(=O)OC(C)(C)C (configuration not stated) |  | > 100 | > 100 |  | > 100 | > 100 | > 100 | > 100 | > 100 | > 100 | > 100
O=C(CCC=C(S(=O)(=O)c1ccccc1)S(=O)(=O)c1ccccc1)c1ccccc1 |  | 30.6 | 80.4 |  | 20.9 | 28.4 | 15 | 19.3 | 23.3 | 19.7 | 20.8

Source: PubChem BioAssay (NCI)
